This passage reports IC50 results from US20240101572A1, “DIHYDROOXADIAZINONE COMPOUND AND PHARMACEUTICAL USE THEREOF” (Japan Tobacco Inc., priority 2022, published 2024).

pIC50: −log10 of the molar value. Read-outs that look alike come from different tables or passages of the source. A value given as a limit tells only on which side of the number the result lay.

For one assay, the target named is full-length human PLD2 (Homo sapiens (Human), UniProt O14939). The assay can be described thus: Evaluation of human PLD2 enzyme inhibitory activity (Amplex Red / choline oxidase fluorescence). In kind it is biochemical. Put shortly: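 Enzyme was N-terminal FLAG-tagged full-length human PLD2 (1-933), expressed in Expi293F cells and anti-FLAG purified. Compound (5% DMSO final) was incubated with enzyme (6 nmol/L solution) and 1,2-diheptanoyl-PC (6 mmol/L solution) in HEPES pH 7.5, KCl, EGTA, MgCl2, NP-40, BSA buffer for 60 min at room temperature. Choline was detected with Amplex Red/choline oxidase/HRP.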
full-length human PLD2, sequence (O14939 whole entry): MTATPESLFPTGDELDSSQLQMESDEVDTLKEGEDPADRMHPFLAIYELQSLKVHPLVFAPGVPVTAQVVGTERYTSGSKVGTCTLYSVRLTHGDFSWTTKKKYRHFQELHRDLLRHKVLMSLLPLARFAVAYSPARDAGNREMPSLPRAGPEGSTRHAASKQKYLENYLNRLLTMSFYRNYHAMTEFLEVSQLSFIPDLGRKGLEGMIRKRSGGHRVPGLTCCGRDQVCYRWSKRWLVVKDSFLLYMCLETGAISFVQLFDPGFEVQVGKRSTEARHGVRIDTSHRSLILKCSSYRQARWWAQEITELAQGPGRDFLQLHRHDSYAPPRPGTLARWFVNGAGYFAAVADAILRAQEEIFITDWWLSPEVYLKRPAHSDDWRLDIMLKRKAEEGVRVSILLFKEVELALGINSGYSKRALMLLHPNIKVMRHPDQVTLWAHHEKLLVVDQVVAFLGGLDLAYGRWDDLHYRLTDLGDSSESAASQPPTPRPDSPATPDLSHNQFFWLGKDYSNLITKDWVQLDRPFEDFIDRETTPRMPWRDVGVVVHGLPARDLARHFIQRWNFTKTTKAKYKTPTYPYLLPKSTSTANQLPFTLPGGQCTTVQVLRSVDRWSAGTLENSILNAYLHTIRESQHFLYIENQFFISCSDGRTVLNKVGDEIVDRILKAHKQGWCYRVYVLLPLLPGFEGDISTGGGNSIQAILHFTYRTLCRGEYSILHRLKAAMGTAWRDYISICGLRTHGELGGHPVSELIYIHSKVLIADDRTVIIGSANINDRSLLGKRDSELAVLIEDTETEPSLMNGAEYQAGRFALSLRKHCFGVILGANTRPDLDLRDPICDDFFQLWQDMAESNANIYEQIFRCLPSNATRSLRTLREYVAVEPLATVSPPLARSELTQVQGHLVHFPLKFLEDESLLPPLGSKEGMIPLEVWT

The next assay deals with full-length human PLD1 (Homo sapiens (Human), UniProt Q13393). Description: Evaluation of human PLD1 enzyme inhibitory activity (Amplex Red / choline oxidase fluorescence). It counts as biochemical. Put shortly:
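N-terminally FLAG-tagged full-length human PLD1 (1-1036), expressed in Expi293F and FLAG-purified, incubated with compound (5% DMSO final) and 1,2-diheptanoyl-sn-glycero-3-phosphocholine for 60 min at room temperature in HEPES pH 7.5 buffer. Released choline detected by Amplex Red/choline oxidase/HRP fluorescence.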

[1] abbreviates: full-length human PLD2 enzyme, read-out: PLD2 IC50.
Where [2] appears, read: full-length human PLD1 enzyme, read-out: PLD1 IC50.
Where [3] appears, read: column 2 of continuation tables 2-12 to 2-14, read-out: human PLD2 enzyme inhibitory activity IC50.
Setting [4] is: column 1 of continuation tables 2-12 to 2-14, read-out: human PLD1 enzyme inhibitory activity IC50.

full-length human PLD1, sequence (Q13393 other isoform, or with tags, fused parts or gaps): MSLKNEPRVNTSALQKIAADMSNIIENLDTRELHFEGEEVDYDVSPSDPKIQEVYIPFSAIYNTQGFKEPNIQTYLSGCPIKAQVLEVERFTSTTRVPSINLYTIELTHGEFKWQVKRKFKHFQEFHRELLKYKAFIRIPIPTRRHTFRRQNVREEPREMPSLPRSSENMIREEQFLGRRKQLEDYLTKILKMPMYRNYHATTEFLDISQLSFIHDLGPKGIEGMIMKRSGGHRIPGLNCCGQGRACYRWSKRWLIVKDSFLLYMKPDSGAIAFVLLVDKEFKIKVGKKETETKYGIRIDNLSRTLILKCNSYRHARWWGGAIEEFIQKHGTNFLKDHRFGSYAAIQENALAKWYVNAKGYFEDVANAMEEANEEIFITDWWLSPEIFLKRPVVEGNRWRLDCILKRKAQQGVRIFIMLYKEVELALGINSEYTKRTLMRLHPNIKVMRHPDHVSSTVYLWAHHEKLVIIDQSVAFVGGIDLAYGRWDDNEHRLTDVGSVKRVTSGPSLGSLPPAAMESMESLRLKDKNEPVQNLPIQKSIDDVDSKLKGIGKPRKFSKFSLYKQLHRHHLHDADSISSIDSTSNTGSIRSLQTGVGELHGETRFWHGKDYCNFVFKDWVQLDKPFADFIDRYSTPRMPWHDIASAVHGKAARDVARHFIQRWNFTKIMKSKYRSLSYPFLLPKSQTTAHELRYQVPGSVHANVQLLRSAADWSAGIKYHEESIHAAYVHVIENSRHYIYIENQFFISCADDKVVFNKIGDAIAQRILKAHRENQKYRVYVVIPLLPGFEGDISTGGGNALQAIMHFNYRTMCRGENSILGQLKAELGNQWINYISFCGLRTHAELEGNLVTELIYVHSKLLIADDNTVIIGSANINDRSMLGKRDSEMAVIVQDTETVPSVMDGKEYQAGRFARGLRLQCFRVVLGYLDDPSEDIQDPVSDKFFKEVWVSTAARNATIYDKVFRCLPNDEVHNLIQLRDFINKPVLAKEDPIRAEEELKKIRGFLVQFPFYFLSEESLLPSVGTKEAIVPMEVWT

With `CNC(=O)C(=O)N[C@@H](C)CN1CCC2(CC1)OC(=O)NN=C2c1cc(C(=O)N(C)C)ccc1Br` [Example 2-038], the pIC50 at full-length human PLD2 (setting [1]) was 7.96; on full-length human PLD1 (setting [2]), 7.22.
As for `C[C@@H](C[C@H]1CC[C@]2(CC1)OC(=O)NN=C2c1cccc2c1OCC2)NC(=O)c1cc(Cl)no1` [Example 108], the results for the negative logarithm of the IC50 (pIC50) on full-length human PLD2 (setting [1]) and at full-length human PLD1 (setting [2]) were 7.42 and 7.60, respectively.
For the compound `C[C@@H](CN1CCC2(CC1)OC(=O)NN=C2c1ccc(C(N)=O)cc1Br)NC(=O)c1cnn(C)c1` [Example 337], the pIC50 was 7.55 on full-length human PLD2 (setting [1]) and 7.13 on full-length human PLD1 (setting [2]).
For `C[C@@H](C[C@H]1CC[C@]2(CC1)OC(=O)NN=C2c1nccn1CC1CC1)NC(=O)c1cc(Cl)no1` [Example 83], the pIC50 at full-length human PLD2 (setting [1]) is 6.66; at full-length human PLD1 (setting [2]), 6.59.
The like results for `CNC(=O)C(=O)N[C@@H](C)[C@H](C)N1CCC2(CC1)OC(=O)NN=C2c1ccc(F)cc1Br` [Example 289] were, in that order, over 8.00 and 7.74.
`Cc1cc(N2CCOCC2)ccc1C1=NNC(=O)O[C@]12CC[C@@H](C[C@H](C)NC(=O)N1CCOCC1)CC2` [Example 200]: the pIC50 on full-length human PLD2 (setting [1]) is 7.09; on full-length human PLD1 (setting [2]), 6.99.
Regarding `C[C@@H](C[C@H]1CC[C@]2(CC1)OC(=O)NN=C2c1ccc(OC(F)F)cc1Br)NC(=O)c1ccn[nH]1` [Example 143], the pIC50 at full-length human PLD2 (setting [1]) was 7.60; at full-length human PLD1 (setting [2]), 7.57.
The like results for `CONC(=O)N[C@@H](C)C[C@H]1CC[C@]2(CC1)OC(=O)NN=C2c1ccc(F)cc1I` [Example 208] were, in that order, 6.65 and 7.35.
`Cc1cc(C(=O)N[C@@H](C)C[C@]2(O)CC[C@@]3(CC2)OC(=O)NN=C3c2ccc(F)cc2Br)[nH]n1` [Example 322, N—((S)-1-(trans-5-(2-bromo-4-fluorophenyl)-9-hydroxy-2-oxo-1-oxa-3,4-diazaspiro[5,5]undec-4-en-9-yl)propan-2-yl)-3-methyl-1H-pyrazole-5-carboxamide]: the pIC50 on full-length human PLD2 (setting [1]) was over 8.00; at full-length human PLD1 (setting [2]) it was 7.52.
With `C[C@@H](C[C@H]1CC[C@]2(CC1)OC(=O)NN=C2c1ccc(F)cc1Br)NC(=O)N1CCOC2(CC2)C1` [Example 283], the pIC50 at full-length human PLD2 (setting [1]) is 7.32; on full-length human PLD1 (setting [2]) it was 7.37.
As to `C[C@@H](C[C@H]1CC[C@]2(CC1)OC(=O)NN=C2c1cccc(C#N)c1Br)NC(=O)C(=O)NC1CC1` [Example 316], the negative-log IC50 (pIC50) on full-length human PLD2 (setting [1]) was 7.21; on full-length human PLD1 (setting [2]), 7.34.
For `Cc1cc(C(=O)N[C@@H](C)C[C@H]2CC[C@]3(CC2)OC(=O)NN=C3c2cc(OC(F)F)ccc2C)[nH]n1` [Example 215], in that order: over 8.00 and over 8.00.
As for `[2H]C([2H])([2H])NC(=O)C(=O)N[C@@H](C)C[C@]1(OC)CC[C@@]2(CC1)OC(=O)NN=C2c1ccc(F)cc1Br` [Example 2-135], the pIC50 on full-length human PLD2 (setting [3]) is over 8.00; at full-length human PLD1 (setting [4]), 7.70.
Consider `C[C@@H](C[C@]1(C#N)CC[C@@]2(CC1)OC(=O)NN=C2c1cc(OC(F)F)ccc1Br)NC(=O)c1cn(C)cn1` [Example 2-078], for which the negative logarithm of the IC50 (pIC50) on full-length human PLD2 (setting [1]) and at full-length human PLD1 (setting [2]) was over 8.00 each time.
Regarding `CNC(=O)C(=O)N[C@@H](C)C[C@H]1CC[C@]2(CC1)OC(=O)NN=C2c1cccc(OC(F)F)c1Br` [Example 306], the pIC50 at full-length human PLD2 (setting [1]) and at full-length human PLD1 (setting [2]) was over 8.00 in each case.
Consider `[2H]C([2H])([2H])NC(=O)C(=O)N[C@@H](C)C[C@]1(C#N)CC[C@@]2(CC1)OC(=O)NN=C2c1cccc(F)c1Br` [Example 2-152], for which the negative logarithm of the IC50 (pIC50) at full-length human PLD2 (setting [3]) is over 8.00; on full-length human PLD1 (setting [4]), 7.80.
Regarding `Cc1cc(Cl)c(C2=NNC(=O)O[C@]23CC[C@@H](C[C@H](C)NC(=O)N2CCn4nccc4C2)CC3)cn1` [Example 276], the results for the pIC50 on full-length human PLD2 (setting [1]) and at full-length human PLD1 (setting [2]) were over 8.00 and 7.68, respectively.
The like results for `C[C@@H](C[C@H]1CC[C@]2(CC1)OC(=O)NN=C2c1cc(Cl)ccc1Cl)NC(=O)c1cc2ccccn2c1` [Example 323] were, in that order, over 8.00 and 8.00.
Turning to `CNC(=O)C(=O)N[C@@H](C)C[C@H]1CC[C@]2(CC1)OC(=O)NN=C2c1cnc(C)cc1Cl` [Example 230, N^1—((S)-1-(cis-5-(4-chloro-6-methylpyridin-3-yl)-2-oxo-1-oxa-3,4-diazaspiro[5.5]undec-4-en-9-yl)propan-2-yl)-N^2-methyloxamide], the negative logarithm of the IC50 (pIC50) at full-length human PLD2 (setting [1]) is over 8.00; at full-length human PLD1 (setting [2]), 7.68.
Take `Cc1cc(Br)ccc1C1=NNC(=O)O[C@]12CC[C@@H](C[C@H](C)NC(=O)C(=O)NC1CC1)CC2` [Example 209]: the pIC50 at full-length human PLD2 (setting [1]) and on full-length human PLD1 (setting [2]) was 7.74 each time.
`[2H]C([2H])([C@H](C)NC(=O)c1cnn(C)c1)N1CCC2(CC1)OC(=O)NN=C2c1ccc(F)cc1Br` [Example 334]: the pIC50 at full-length human PLD2 (setting [1]) was over 8.00; at full-length human PLD1 (setting [2]) it was 7.59.
For `C[C@@H](C[C@H]1CC[C@]2(CC1)OC(=O)NN=C2c1ccc(F)cc1Br)NC(=O)C1CCC(=O)N1` (mixture of isomers) [Example 18], in that order: 6.80 and 6.07.
The like results for `CNC(=O)C(=O)N[C@@H](C)C[C@H]1CC[C@]2(CC1)OC(=O)NN=C2c1cnc(N2CC(F)(F)C2)cc1C` [Example 228] were, in that order, over 8.00 and 7.55.
On to `C[C@@H](C[C@H]1CC[C@]2(CC1)OC(=O)NN=C2c1ccccc1OC(F)(F)F)NC(=O)c1cc(Cl)no1` [Example 111], for which the figures for the pIC50 at full-length human PLD2 (setting [1]) and at full-length human PLD1 (setting [2]) were 7.68 and 7.77, respectively.
For `COc1cc(C)c(C2=NNC(=O)O[C@]23CC[C@@H](C[C@H](C)NC(=O)c2cc(C)n[nH]2)CC3)cn1` [Example 160], in that order: 7.77 and 7.59.
The like results for `Cc1cc(C(=O)N[C@@H](C)C[C@H]2CC[C@]3(CC2)OC(=O)NN=C3c2cnc(N3CC(F)(F)C3)cc2C)[nH]n1` [Example 273] were, in that order, over 8.00 and 7.72.
With `C[C@@H](C[C@H]1CC[C@]2(CC1)OC(=O)NN=C2c1ccc(F)cc1I)NC(=O)C(=O)NC1CC1` [Example 177], the figures for the pIC50 on full-length human PLD2 (setting [1]) and at full-length human PLD1 (setting [2]) were over 8.00 and 8.00, respectively.
Consider `C[C@@H](C[C@H]1CC[C@]2(CC1)OC(=O)NN=C2c1ccc(OC(F)(F)F)cc1Br)NC(=O)NC1CC1` [Example 195], for which the pIC50 was 7.17 on full-length human PLD2 (setting [1]) and 7.41 on full-length human PLD1 (setting [2]).
For `Cc1cc(C(=O)N[C@@H](C)C[C@H]2CC[C@]3(CC2)OC(=O)NN=C3c2cc(OC(F)(F)F)ccc2Br)[nH]n1` [Example 304], in that order: over 8.00 and over 8.00.
In the case of `C[C@@H](C[C@H]1CC[C@]2(CC1)OC(=O)NN=C2c1ccc(C(C)(C)O)cc1Br)NC(=O)c1cc(Cl)no1` [Example 97], the pIC50 on full-length human PLD2 (setting [1]) and on full-length human PLD1 (setting [2]) was over 8.00 each time.
Take `Cc1cc(C(=O)N[C@@H](C)CN2CCC3(CC2)OC(=O)NN=C3c2ccc(F)cc2Br)[nH]n1` [Example 3]: the pIC50 was over 8.00 at full-length human PLD2 (setting [1]) and 7.57 at full-length human PLD1 (setting [2]).
The like results for `Cc1cc(C(=O)N[C@@H](C)C[C@H]2CC[C@]3(CC2)OC(=O)NN=C3c2cccc(C#N)c2Br)[nH]n1` [Example 317] were, in that order, 7.19 and 7.15.
For `C[C@@H](CN1CCC2(CC1)OC(=O)NN=C2c1ccc(S(C)(=O)=O)cc1Cl)NC(=O)c1cc2cc(F)ccc2o1` [Example 116], in that order: 7.43 and 7.37.
For `CNC(=O)C(=O)N[C@@H](C)C[C@H]1CC[C@]2(CC1)OC(=O)NN=C2c1ccc(F)cc1I` [Example 139], in that order: over 8.00 and over 8.00.
Turning to `C[C@@H](C[C@]1(C#N)CC[C@@]2(CC1)OC(=O)NN=C2c1cc(C(F)(F)F)ccc1Br)NC(=O)c1cn(C)cn1` [Example 2-079], the pIC50 at full-length human PLD2 (setting [1]) was 8.00; at full-length human PLD1 (setting [2]), 7.96.
Regarding `C[C@@H](C[C@H]1CC[C@]2(CC1)OC(=O)NN=C2c1cc(C#N)ccc1Br)NC(=O)c1ccn(C)n1` [Example 2-070], the values for the pIC50 on full-length human PLD2 (setting [1]) and at full-length human PLD1 (setting [2]) were 7.42 and 7.17, respectively.
On to `CNC(=O)C(=O)N[C@@H](C)C[C@H]1CC[C@]2(CC1)OC(=O)NN=C2c1ccccc1Br` [Example 26], for which the pIC50 on full-length human PLD2 (setting [1]) and at full-length human PLD1 (setting [2]) was over 8.00 throughout.
As to `C[C@@H](CN1CCC2(CC1)OC(=O)NN=C2c1ccc(F)cc1Br)NC(=O)c1cnn(C(F)(F)F)c1` [Example 255], the pIC50 on full-length human PLD2 (setting [1]) was 7.85; at full-length human PLD1 (setting [2]), 7.49.
The like results for `C[C@@H](CN1CCC2(CC1)OC(=O)NN=C2c1ccc(F)cc1Br)NC(=O)C(=O)NC1CC1` [Example 180] were, in that order, 7.92 and 7.55.
Turning to `Cc1cc(C(=O)NC(C)CN2CCC3(CC2)OC(=O)NN=C3c2cccc(F)c2Br)[nH]n1` (stereo not shown) [Example 2-031], the pIC50 on full-length human PLD2 (setting [1]) is over 8.00; on full-length human PLD1 (setting [2]) it was 7.72.
Consider `C[C@@H](C[C@H]1CC[C@]2(CC1)OC(=O)NN=C2c1ccc(F)cc1)NC(=O)c1cc2cc(F)ccc2[nH]1` [Example 4], for which the negative logarithm of the IC50 (pIC50) on full-length human PLD2 (setting [1]) is 7.96; on full-length human PLD1 (setting [2]), 7.44.
The like results for `Cc1ncccc1C1=NNC(=O)O[C@]12CC[C@@H](C[C@H](C)NC(=O)c1cc(Cl)no1)CC2` [Example 103] were, in that order, 6.42 and 6.77.
With `CNC(=O)C(=O)N[C@@H](C)CN1CCC2(CC1)OC(=O)NN=C2c1ccccc1SC(F)(F)F` [Example 2-021], the values for the pIC50 on full-length human PLD2 (setting [1]) and on full-length human PLD1 (setting [2]) were 7.82 and 7.57, respectively.
On to `[2H]C([2H])([2H])NC(=O)C(=O)N[C@@H](C)C[C@]1(C#N)CC[C@@]2(CC1)OC(=O)NN=C2c1cc(OC(F)F)c(F)cc1Br` [Example 2-138], for which the negative-log IC50 (pIC50) on full-length human PLD2 (setting [3]) is over 8.00; on full-length human PLD1 (setting [4]), 7.85.

For orientation: pIC50 means the IC50 on a negative log10 scale, so that one unit is a factor of ten.
